Source: patent US4163662A, “Liquid formulations of 1-(3,4-dichlorophenyl)-3-methoxy-3-methylurea and selected chloroacetamides” (E. I. Du Pont de Nemours and Company, priority 1977, dated 1979)

What was measured:
Type in all cases: physicochemical
[1] = Cold Storage Test at -5° C., propachlor/linuron in trichloroethylene (Table I); settings: for Max. Stable concentration (no crystallization) / Min. Unstable concentration (crystals first appear): total active ingredient
Excerpt: The temperature limits below which crystallization of solute will occur can be measured by storing samples in a controlled temperature chest, seeding with tiny crystals of pure materials and observing the growth or disappearance of crystals after a period of several days. If no crystals form, the process is then repeated at a lower temperature, until the limit of stability has been found. However, crystallization characteristics can be also meaningfully, rapidly and conveniently measured by a determination of the cloud point of the system.
(§1) Purified linuron, purified propachlor, purified alachlor and commercial "Triclene" (trichloroethylene, technical) are used in the procedure. Samples containing various ratios and concentrations of linuron, propachlor, and linuron-propachlor mixtures are placed in a cold chest. The temperature is lowered and samples are seeded with traces of dust of the active ingredients after the solution has been cooled to the test temperature of -5° C. The samples are then observed over the course of at least 3 to 4 days to determine whether crystallization has occurred. When the temperature of the system is maintained within the range of -4.5° to -5.0° C. for 4 days after seeding. The maximum solution concentration in grams of active ingredient per 100 grams of solvent, at which no crystallization occurs (Max. Stable), and the minimum solution concentration at which crystals first appear (Min. Unstable) are observed.

[2] = Cold Storage Test at 3° C. and at -8° to -9° C., alachlor/linuron (Table II); settings: for Max. Stable concentration / Min. Unstable concentration: total active ingredient
Method: as §1
A similar test was run replacing propachlor with alachlor and at ^+ 3° C. and at -8° to -9° C. with the following results: […]

[3] = Amount of insoluble crystalline material after room temperature storage (Tables III, IV, V)
Method: Samples weighing 5 grams each total weight were prepared by mixing the indicated solids and liquids, in the indicated proportions and shaking in closed vials, which were sealed with epoxy cement to prevent evaporation.
Tables III, IV, and V show the proportions of each mixture and the amounts of insoluble, crystalline material observed in each case after room temperature storage: […]

Compound: CON(C)C(=O)Nc1ccc(Cl)c(Cl)c1 [Linuron, 1-(3,4-dichlorophenyl)-3-methoxy-3-methylurea]
- Max. Solubility Range, Linuron [1]: 4.1-5.2 grams/100 grams Solvent
- Max. Stable concentration (no crystallization) [1]: 4.1 grams/100 grams Solvent
- Min. Unstable concentration (crystals first appear) [1]: 5.2 grams/100 grams Solvent
- Max. Solubility Range For Linuron ([2]; 3° C.): 4.1-4.7 grams/100 grams Solvent
- Max. Stable concentration ([2]; 3° C.): 4.1 grams/100 grams Solvent
- Min. Unstable concentration ([2]; 3° C.): 4.7 grams/100 grams Solvent
- Max. Solubility Range For Linuron ([2]; -8° to -9° C.): 3.6-4.1 grams/100 grams Solvent
- Max. Stable concentration ([2]; -8° to -9° C.): 3.6 grams/100 grams Solvent
- Min. Unstable concentration ([2]; -8° to -9° C.): 4.1 grams/100 grams Solvent
- crystalline material ([3]; 5 weight % linuron, 95% tetrachloroethylene, room temperature): moderate
- crystalline material ([3]; 9 weight % linuron, 91% tetrachloroethylene, room temperature): heavy
- crystalline material ([3]; 9 weight % linuron, 91% xylene, room temperature): slight
- crystalline material ([3]; 10 weight % linuron, 90% "Panasol" AN-3, room temperature): moderate
- crystalline material ([3]; 15 weight % linuron, 85% "Panasol" AN-3, room temperature): heavy
- crystalline material ([3]; 17 weight % linuron, 83% xylene, room temperature): heavy
- dissolution result on shaking in the solvent ([3]; hydrocarbons and halocarbons, room temperature): crystals remained

Compound: CC(C)N(C(=O)CCl)c1ccccc1 [Propachlor, 2-chloro-N-isopropylacetanilide]
- Max. Solubility Range, Propachlor [1]: 21.9-25 grams/100 grams Solvent
- Max. Stable concentration (no crystallization) [1]: 21.9 grams/100 grams Solvent
- Min. Unstable concentration (crystals first appear) [1]: 25 grams/100 grams Solvent
- crystalline material ([3]; 18 weight % propachlor, 82% tetrachloroethylene, room temperature): moderate
- crystalline material ([3]; 30 weight % propachlor, 70% "Panasol" AN-3, room temperature): moderate
- crystalline material ([3]; 34 weight % propachlor, 66% xylene, room temperature): moderate
